For data set [1], the system named is memory T cells (low CD62L, high CD44). As to the kind of experiment: Flow cytometric analysis of memory T cells (CD62L low, CD44 high) in splenocytes of vaccinated mice. Type of data set: in vivo, C57BL/6 mice. To be noted: one week post-third dose. Here is the method:
C57BL/6 mice were obtained from NLAC Taiwan. Mice between 4 and 8 weeks of age were vaccinated with 100 μL via the subcutaneous (SC) route and one dose per week for three weeks. Mice was sacrificed one week after the third vaccination, serum and splenocytes were harvested.
Spleen tissue was isolated from mice and processed into single cell suspensions using PP micro centrifuge sample pestle. Splenocytes were seeding on 6 well plate at 2×10^7/2 mL, cultivation for 2 h in a CO2 incubator. After 2 h, stimulate with or without E7-peptide for 2 hours at 37° C., then treat cell with protein transport inhibitor Monensin (Invitrogen, Cat. no. 00-4505-51) and Brefeldin (Invitrogen, Cat. no. 00-4506-51) for 4 hours at 37° C. Afterward, cells were harvest then washed twice with PBS and then stained for surface CD3 (BioLegend, Cat. no. 100222), CD4 (BioLegend, Cat. no. 100540), CD8 (Invitrogen, Cat. no. 11-0081-86), CD44 (BioLegend, Cat. no. 103008), CD62L (BioLegend, Cat. no. 104412) for 30 minutes at 4° C. After washing, cells were fixed for 30 minutes at room temperature using IC fixation buffer (Invitrogen, Cat. no. 00-8222-49), then cells were washed in permeabilization buffer (Invitrogen, Cat. no. 00-8333-56) and stained with IFNγ antibody (Invitrogen, Cat. no. 48-7311-82), IL-2 antibody (Invitrogen, Cat. no. 25-7021-82) and TNFα antibody (Invitrogen, Cat. no. 48-7321-82). One point five million cells events were acquired on the Backman Coulter Gallions. Flow data were analyzed using Kaluza software (ver. 1.2). Populations were first gated on viable mononuclear cell using forward and side scatter, then gated on CD3^+/CD4^+ or CD3^+/CD8^+ T cells. Next, sub-gated CD62L^−/CD44^+ memory T cells. Subsequently, sub-gated on either CD4^+/IFNγ, CD8^+/IFNγ^+, CD4^+/IL-2^+, CD8^+/IL-2^+, CD4/TNFα^+ and CD8^+/TNFα^+ double-positive cells.
Two adhesion molecules associated with differentiating naive and activated/memory T cells are CD62L (L-selectin) and CD44 (H-CAM). […] Flow-cytometric analysis (individual mice) of T-cells as frequency of viable CD8^+ or CD4^+ splenocytes expressing IFN-γ, TNF-α, or IL-2. Cytokine positivity was determined.

For data set [2], the system named is E.G7-OVA (OVA-expressing EL4 lymphoma) tumors. The experiment in a line: Tumor challenge: OVA vaccine with adjuvant in E.G7-OVA tumor bearing mice. In kind it is in vivo, C57BL/6 mice. The settings on record: Days 7, 14; for tumor growth suppression compared with the control group (PBS): 100 μg OVA with or without 50 μg adjuvant. The method, then: Female C57BL/6 mice 6-8 weeks of age obtained from NLAC Taiwan. Mice were injected s.c. with 200 μL of 1.5*10^6 E. G7-OVA (OVA-expressing EL4 lymphoma) cells in PBS. Tumor volumes were measured at regular intervals using a caliper and calculated by the following formula: tumor volume (mm^3)=(long diameter)*(short diameter)^2*0.52. When the average tumor volume reached […] (day 7), 100 μL of 100 μg OVA in PBS with or without 50 μg compound 56, alum, Qs-21 and GPI0100 was injected s.c. around the tumor. PBS (200 μL) was used as a control.
A mouse-vaccination model was applied with an antigen OVA to evaluate anti-tumor efficacy. […] The evaluation of compound 56, and positive control groups (alum, Qs-21 and GPI-0100) anti-tumor efficacy were analyzed by caliper.

In data set [3] the test system is PEK antigen (PE-E7-K3)-specific cytokine-secreting splenocytes. The experiment in a line: ELISpot of IFNγ and IL-2 production by splenocytes of mice vaccinated with PEK antigen plus saponin adjuvant. Type of data set: in vivo, C57BL/6 mice. The settings on record: 50 μg saponin + PEK 100 μg, s.c.; splenocytes one week after third dose.
For another data set, the system named is Female BALB/c mice. The experiment in a line: Acute toxicity with increased dose of saponin (survival, weight change, spleen and hepato somatic index). Type of data set: in vivo. An excerpt: FIG. 8 (A) The percentage of median weight change of mice in 5 days. The values are presented as means±S.E.M. (n=5). (B) Hepato somatic index and (C) Spleen somatic index. The values are presented as means±S.E.M. (n=5). The percentage of median weight change of mice which was received increased dose of saponin adjuvant 56 was all less than 5%. The spleen somatic index and hepato somatic index in all experimental group were no change with compare to control group.
Acute toxicity was examined with increased dose of saponin 56 form 100 μg to 1000 μg. The result was presented as the number of surviving animal per group of 5 mice (Female BALB/c mice, 9 weeks) in 7 days. […] (FIG. 8)
The results represent in FIG. 8. […] The spleen somatic index and hepato somatic index in all experimental group were no change with compare to control group.

The subject of the next data set is SARS-CoV-2 spike protein. The experiment in a line: ELISA of serum SARS-CoV-2-specific IgG after vaccination with spike protein and adjuvant. Type of data set: in vivo, C57BL/6 mice. In general terms: An ELISA detects its analyte on a solid surface through an enzyme-linked reagent.
The subject of the next data set is PR8 virus. The experiment in a line: Influenza challenge: NP peptide vaccine with compound 56, then live PR8 virus infection. In kind it is in vivo, C57BL/6 mice. The settings on record: NPI/II plus compound 56 (50 μg s.c. or 30 μg i.n.); two vaccinations; 110 PFU PR8. The method, then:
Female C57BL/6 mice 6-8 weeks of age were immunized through either s.c. injection with 100p of vaccines or the intranasal route with 30 μl of vaccines. All vaccine liquids were freshly prepared and diluted with 0.5% Tween 20 PBS. Vaccines used for the subcutaneous injection contained immunogens NP366-374/NP311-325 peptides, alone or combined with compound 56 ([…]). Vaccines used for the i.n. route contained immunogens alone or with compound 56 (30 μg). After two times vaccination, mice were infected with 110 plaque-forming units (PFU) of live PR8 virus by intronasal.
A mouse-vaccination model was applied with an antigen […] to evaluate anti-influenza efficacy. Five mice per group were immunized two times with compound 56 and NPI/II. After two times vaccination, mice were infected with 110 plaque-forming units (PFU) of live PR8 virus by intronasal.

From patent US12419952B2, “Saponin conjugate and vaccine or pharmaceutical composition comprising the same” (priority 2019, dated 2025) come the findings set out here.

For the compound `CC1O[C@@H](OC(=O)[C@]23CCC(C)(C)CC2C2=CCC4C5(C)CC[C@H](O[C@@H]6OC(C(=O)NCCCCCCCCc7ccc(N8CCOCC8)cc7)[C@@H](O)C(O)C6O)C(C)(C=O)C5CCC4(C)[C@]2(C)CC3O)C(O[C@@H]2OC(C)[C@H](O[C@@H]3OC[C@@H](O)C(O)C3O)C(O)C2O)C(O)[C@H]1O` (stereo partly drawn) [Compound 62, 3-O—(N-(8-(4-morpholinophen-1-yl)octyl)-β-D-glucopyranosyluronamide)-28-O-(β-D-xylopyranosyl-(1→4)-α-L-rhamnopyranosyl-(1-2)-β-D-fucopyranosyl) quillaic ester], in data set [1], the “cytokine positive CD4+ T-cells” value was “no cytokine positive CD4^+ T-cells were detected” and the “frequency of CD8+ T-cells positive for IFN-γ or TNF-α as compared to mice vaccinated with GPI-0100” value is on record as “higher frequency”.

Regarding “OVA: antigen OVA used in the tumor vaccination model”, the “tumor growth suppression compared with the control group (PBS)” value in data set [2] was “slight tumor growth suppression at first”.

On to `CC1O[C@@H](OC(=O)[C@]23CCC(C)(C)CC2C2=CCC4C5(C)CC[C@H](O[C@@H]6OC(C(=O)NCCCCCCCCc7ccc(Oc8ccccc8)cc7)[C@@H](O)C(O)C6O)C(C)(C=O)C5CCC4(C)[C@]2(C)CC3O)C(O[C@@H]2OC(C)[C@H](O[C@@H]3OC[C@@H](O)C(O)C3O)C(O[C@@H]3OC(CO)[C@@H](O)C(O)C3O)C2O)C(O)[C@H]1O` (stereo partly drawn) [Compound 79, 3-O—(N-(8-(4-Phenoxyhenyl)octyl)-β-D-glucopyranosyluronamide)-28-O-(β-D-glucopyranosyl-(1→3)-(β-D-xylopyranosyl-(1-4))-α-L-rhamnopyranosyl-(1→2)-β-D-fucopyranosyl) quillaic ester], for which, in data set [3], the “inducing IL-2 (ELISpot)” value is recorded as “moderate” and the “secretion of cytokines IFNγ (ELISpot) compared with GPI0100” value was “three to four times more”. Moreover, in data set [1], the “cytokine positive CD4+ T-cells” value is listed as “no cytokine positive CD4^+ T-cells were detected” and the “frequency of CD8+ T-cells positive for IFN-γ or TNF-α as compared to mice vaccinated with GPI-0100” value is reported as “higher frequency”.

With `CC1O[C@@H](OC(=O)[C@]23CCC(C)(C)CC2C2=CCC4C5(C)CC[C@H](O[C@@H]6OC(C(=O)NCCCCCCCCc7ccc(Oc8ccccc8)cc7)[C@@H](O)C(O)C6O)C(C)(C=O)C5CCC4(C)C2(C)CC3O)C(O[C@@H]2OC(C)[C@H](O[C@@H]3OC[C@@H](O)C(O)C3O)C(O)C2O)C(O)[C@H]1O` (stereo partly drawn) [Compound 56, 3-O—(N-(8-(4-Phenoxyhenyl)octyl)-β-D-glucopyranosyluronamide)-28-O-(β-D-xylopyranosyl-(1→4)-α-L-rhamnopyranosyl-(1→2)-β-D-fucopyranosyl) quillaic ester], in the data set on Female BALB/c mice (100 μg to 1000 μg, 7 days), the “abnormality on activity and diet behavior” value is recorded as “no obvious abnormality”; the “survival in acute toxicity test” value is given as “all of the mice were survive”. In addition, in the data set on Female BALB/c mice (Dose 100 μg, 7 days), the “number of surviving animal per group of 5 mice” value (shortened to “number … per group of 5 mice”) is listed as 5/5. For the same compound, the “number … per group of 5 mice” value with Female BALB/c mice (Dose 200 μg, 7 days) is recorded as 5/5. In addition, in the data set with Female BALB/c mice (Dose 500 μg, 7 days), the “number … per group of 5 mice” value is on record as 5/5. Moreover, the “number … per group of 5 mice” value in the data set on Female BALB/c mice (Dose 1000 μg, 7 days) is listed as 5/5. In addition, in the data set on Female BALB/c mice (all experimental groups, n=5), the “hepato somatic index compared to control group” value is on record as “no change” and the “spleen somatic index compared to control group” value is “no change”. Further, the “percentage of median weight change of mice” value with Female BALB/c mice (increased dose of saponin adjuvant, 5 days, n=5) is recorded as “less than 5%”. Besides, in data set [3], the “inducing IL-2 (ELISpot)” value is reported as “moderate” and the “secretion of cytokines IFNγ (ELISpot) compared with GPI0100” value was “three to four times more”. For the same compound, in the data set with SARS-CoV-2 spike protein (SARS-CoV-2 (2 μg) + Compound 56 (50 μg) vs SARS-CoV-2 (10 μg) + Alum (10 μg), only 20% of antigen), the “increase of antibody titer” value worked out at 1000 fold. For the same compound, the “level of SARS-CoV-2-specific IgG antibody production” value in the data set with SARS-CoV-2 spike protein (SARS-CoV-2 (2 μg) + Compound 56 (50 μg), s.c.) was “highest level of antibody production”. The “survival rate of tumor bearing mice” value in data set [2] (100 μg OVA + 50 μg adjuvant) was “highest survival rate”. Moreover, in data set [2], the “tumor growth suppression compared with the control group (PBS)” value is “significant tumor growth suppression effect”. In data set [1], the “cytokine positive CD4+ T-cells” value is given as “no cytokine positive CD4^+ T-cells were detected” and the “frequency of CD8+ T-cells positive for IFN-γ or TNF-α as compared to mice vaccinated with GPI-0100” value was “higher frequency”. In addition, the “survival rate following PR8 infection compared to NP I/II peptides alone” value with PR8 virus is reported as “higher survival rate”.

Alum [reference compound]: the “tumor growth suppression compared with the control group (PBS)” value in data set [2] was “slight tumor growth suppression at first”.

As to Qs-21 [reference compound], in data set [2], the “tumor growth suppression compared with the control group (PBS)” value is “significant tumor growth suppression effect”.
